Paper PMC6934184, “Selective DNA-PKcs inhibition extends the therapeutic index of localized radiotherapy and chemotherapy” (The Journal of Clinical Investigation, 2019)

Target: T1, RPS6KA4 (MSK2) (Homo sapiens, UniProt O75676)
T1 construct: purchased Thermo Fisher Scientific (Life Technologies) SelectScreen
Assay: SelectScreen Z'LYTE
Assay type: biochemical
Procedure, shortened: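 SelectScreen broad panel; activity (Z'LYTE, Adapta) plus binding formats. ATP: Km app for CSF1R Z'LYTE; 10 for CAMK1 Adapta. Readout = % per kinase.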

T1 sequence (O75676 whole entry): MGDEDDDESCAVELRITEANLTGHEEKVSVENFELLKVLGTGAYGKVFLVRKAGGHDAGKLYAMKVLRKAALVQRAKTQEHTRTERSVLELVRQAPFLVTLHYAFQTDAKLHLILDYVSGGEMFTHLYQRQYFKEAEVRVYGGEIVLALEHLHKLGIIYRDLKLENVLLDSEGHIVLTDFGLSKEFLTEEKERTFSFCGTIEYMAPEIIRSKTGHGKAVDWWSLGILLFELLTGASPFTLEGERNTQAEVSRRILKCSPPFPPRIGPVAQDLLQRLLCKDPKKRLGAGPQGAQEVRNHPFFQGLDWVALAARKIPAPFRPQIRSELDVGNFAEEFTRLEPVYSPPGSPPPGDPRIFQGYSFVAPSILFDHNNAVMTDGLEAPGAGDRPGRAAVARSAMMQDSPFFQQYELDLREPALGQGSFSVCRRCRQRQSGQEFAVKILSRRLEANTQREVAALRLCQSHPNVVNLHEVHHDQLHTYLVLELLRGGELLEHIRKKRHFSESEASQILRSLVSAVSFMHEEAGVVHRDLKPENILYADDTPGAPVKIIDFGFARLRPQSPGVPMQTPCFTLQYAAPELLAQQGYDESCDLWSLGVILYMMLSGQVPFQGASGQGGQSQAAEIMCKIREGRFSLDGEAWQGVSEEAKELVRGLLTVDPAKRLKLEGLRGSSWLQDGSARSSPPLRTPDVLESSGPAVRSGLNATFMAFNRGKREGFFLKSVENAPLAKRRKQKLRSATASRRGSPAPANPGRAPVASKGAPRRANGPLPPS

Compound: CN(C(=O)CN1CCOCC1)c1ccc2sc3c(-c4cccc5c(=O)cc(N6CC7CCC(C6)O7)oc45)cccc3c2c1 [NU5455]
- inhibition at 1 µM: 4.2%
